ChEMBL document CHEMBL1158720, “Ambigol C and 2,4-dichlorobenzoic acid, natural products produced by the terrestrial cyanobacterium Fischerella ambigua” (J Nat Prod, 2005)
≈ marks a conversion by molar mass, not a printed value. Calls of active or inactive are those of the source. The rule behind the calls is not given here.

Assays:
[1] = tested on: Trypanosoma brucei rhodesiense; assay: Antitrypanosomal activity against Trypanosoma brucei rhodesiense trypomastigotes; format: functional
[2] = tested on: [Chlorella] fusca; assay: Antimicrobial activity against Chlorella fusca at 50 ug/filter disk; format: functional, Scenedesmus fuscus
[3] = tested on: Biomphalaria glabrata; assay: Molluscicidal activity against Biomphalaria glabrata at 100 ug/ml; format: functional, organism-based
[4] = tested on: Mycobacterium tuberculosis; assay: Antimicrobial activity against Mycobacterium tuberculosis; format: functional
[5] = tested on: Plasmodium falciparum; assay: Antiplasmodial activity against chloroquine-sensitive Plasmodium falciparum NF54; format: functional, organism-based
[6] = tested on: Plasmodium falciparum; assay: Antiplasmodial activity against chloroquine-resistant Plasmodium falciparum K1; format: functional, organism-based
[7] = tested on: Trypanosoma cruzi; assay: Antitrypanosomal activity against Trypanosoma cruzi trypomastigotes; format: functional
[8] = tested on: Fusarium oxysporum; assay: Antimicrobial activity against Fusarium oxysporum at 50 ug/filter disk; format: functional
[9] = tested on: Priestia megaterium; assay: Antimicrobial activity against Bacillus megaterium at 50 ug/filter disk; format: functional
[10] = tested on: L6; assay: Cytotoxicity against rat L6 cells; format: functional
[11] = tested on: Aspergillus pseudoglaucus; assay: Antimicrobial activity against Eurotium repens at 50 ug/filter disk; format: functional
[12] = tested on: Escherichia coli; assay: Antimicrobial activity against Escherichia coli at 50 ug/filter disk; format: functional
[13] = tested on: Microbotryum violaceum; assay: Antimicrobial activity against […] at 50 ug/filter disk; format: functional
[14] = tested on: Mycotypha microspora; assay: Antimicrobial activity against Mycotypha microspora at 50 ug/filter disk; format: functional

Structure (SMILES)	MIC [1]	inhibition zone (IZ) [2]	Activity [3]	MIC [4]	IC50 [5]	IC50 [6]	MIC [7]	inhibition zone (IZ) [8]	inhibition zone (IZ) [9]	MIC [10]	inhibition zone (IZ) [11]	Activity [12]	inhibition zone (IZ) [13]	inhibition zone (IZ) [14]	Activity ([2]; Scenedesmus fuscus)	Activity [8]	Activity [11]	Activity [14]	inhibition zone (IZ) [12]
Oc1c(Cl)cc(Cl)cc1-c1c(Cl)cc(Cl)c(Oc2ccc(Cl)cc2Cl)c1O [AMBIGOL A]	33 µg/mL (≈ 68 µM)	3 mm	Active	64 µg/mL (≈ 132 µM)	1.62 µg/mL (≈ 3.35 µM)	0.846 µg/mL (≈ 1.74 µM)	33 µg/mL (≈ 68 µM)	8 mm	8 mm	33 µg/mL (≈ 68 µM)	7 mm	inactive	7 mm	4 mm					
Oc1c(Cl)c(Oc2ccc(Cl)cc2Cl)cc(Oc2ccc(Cl)cc2Cl)c1Cl [AMBIGOL C]	11 µg/mL (≈ 22.7 µM)		inactive	> 128 µg/mL	2.5 µg/mL (≈ 5.15 µM)	1.54 µg/mL (≈ 3.17 µM)	100 µg/mL (≈ 206 µM)		7 mm	100 µg/mL (≈ 206 µM)		inactive	5 mm		inactive	inactive	inactive	inactive	
C[C@@H]1CC[C@H]2[C@@H](C)C(=O)O[C@@H]3O[C@@]4(C)CC[C@@H]1[C@]32OO4 [ARTEMISININ]					0.003 µg/mL (≈ 0.0106 µM)	0.001 µg/mL (≈ 0.00354 µM)													
Nc1nc(N)nc(Nc2ccc([As]3SCC(CO)S3)cc2)n1 (configuration not stated) [MELARSOPROL]	0.011 µg/mL						0.011 µg/mL												
Clc1ccc(COC(Cn2ccnc2)c2ccc(Cl)cc2Cl)c(Cl)c1 (configuration not stated) [MICONAZOLE]		20 mm						20 mm	20 mm		20 mm		20 mm	20 mm					20 mm
CO[C@H]1/C=C/O[C@@]2(C)Oc3c(C)c(O)c4c(O)c(c(/C=N/N5CCN(C)CC5)c(O)c4c3C2=O)NC(=O)/C(C)=C\C=C\[C@H](C)[C@H](O)[C@@H](C)[C@@H](O)[C@@H](C)[C@H](OC(C)=O)[C@@H]1C [RIFAMPIN]				0.125 µg/mL (≈ 0.152 µM)															
CN[C@@H]1[C@H](O[C@H]2[C@H](O[C@H]3[C@H](O)[C@@H](O)[C@H](N=C(N)N)[C@@H](O)[C@@H]3N=C(N)N)O[C@@H](C)[C@]2(O)C=O)O[C@@H](CO)[C@H](O)[C@H]1O.CN[C@@H]1[C@H](O[C@H]2[C@H](O[C@H]3[C@H](O)[C@@H](O)[C@H](N=C(N)N)[C@@H](O)[C@@H]3N=C(N)N)O[C@@H](C)[C@]2(O)C=O)O[C@@H](CO)[C@H](O)[C@H]1O.O=S(=O)(O)O.O=S(=O)(O)O.O=S(=O)(O)O [STREPTOMYCIN SULFATE]		4 mm						4 mm	4 mm		4 mm		4 mm	4 mm					4 mm
